# Where two headings read alike, the source gives them in different places.
# What was measured:
# [1] = Gerster c.s., 25th Intersc. Conf. Antimicrob. Agents and Chemotherapy, 1985; cited from earlier work
# Staph. aureus [2] = settings: bacterium 1 of Table II (Staph. aureus); from EP 0165375; cited from earlier work
# E. coli [3] = settings: bacterium 2 of Table II (E. coli); from EP 0165375; cited from earlier work
# Ps. aeruginosa [4] = settings: bacterium 4 of Table II (Ps. aeruginosa); from EP 0165375; cited from earlier work
# Ps. aeruginosa [5] = test: Antibacterial activity, MIC and MBC (Table II); assay type: cell-based; settings: assay in duplicate (two lines); for MBC: Minimum Bactericidal Concentration; for MIC: Minimum Inhibitory Concentration
# Description: (§1) GBR 23790 is (S)-9-fluoro-3-methyl-10-(4-methyl-1-piperazinyl)-2,3-dihydro-7-oxo-7H-pyrido[1,2,3-de][1,4]-benzothiazine-6-carboxylic acid, which is S-ofloxacin, but with the ring oxygen atom substituted by a ring sulfur atom. • MIC = Minimum Inhibitory Concentration (mg/I) • MBC = Minimum Bactericidal Concentration (mg/I) Each assay has been carried out in duplicate. GBR 23790 in racemic form is known from EP 0165375 (compound (p) in Table I). Its MIC-values, are for bacteria 1, 2 and 4 in the above Table II, resp. 0.78, 0.78 and 50.
# Strep. faecalis = test: Antibacterial activity, MIC and MBC (Table II); assay type: cell-based; settings: Enterococcus faecalis, assay in duplicate (two lines); for MBC: Minimum Bactericidal Concentration; for MIC: Minimum Inhibitory Concentration
# Description: as §1
# E. coli [6] = test: Antibacterial activity, MIC and MBC (Table II); assay type: cell-based; settings: Escherichia coli, assay in duplicate (two lines); for MBC: Minimum Bactericidal Concentration; for MIC: Minimum Inhibitory Concentration
# Description: as §1
# Staph. aureus [7] = test: Antibacterial activity, MIC and MBC (Table II); assay type: cell-based; settings: Minimum Inhibitory Concentration, assay in duplicate (two lines)
# Description: as §1
# [8] = Pseudomonas aeruginosa, read-out: MBC
SMILES,antibacterial activity in vitro [1],MBC (Ps. aeruginosa [5]; [8]),MIC (Ps. aeruginosa [5]; Pseudomonas aeruginosa),MBC (Strep. faecalis),MIC (Strep. faecalis),MBC (E. coli [6]),MIC (E. coli [6]),other results
"Cc1c(F)cc2c(=O)c(C(=O)O)cn3c2c1CC[C@@H]3C [(S)-(-)-isomer of 6,7-dihydro-5,8-dimethyl-9-fluoro-1-oxo-1 ] [6,7-dihydro-5,8-dimethyl-9-fluoro-1-oxo-1 H,5H-benzo[ij]quinolizine-2-carboxylic acid]",potent antibacterial activity,,,,,,,
CC1CSc2c(N3CCN(C)CC3)c(F)cc3c(=O)c(C(=O)O)cn1c23 (racemic) [GBR 23790 in racemic form],,,,,,,,MIC-values (Staph. aureus [2]): 0.78 mg/I; MIC-values (E. coli [3]): 0.78 mg/I; MIC-values (Ps. aeruginosa [4]): 50 mg/I
"C[C@H]1CSc2c(N3CCN(C)CC3)c(F)cc3c(=O)c(C(=O)O)cn1c23 [GBR 23790, (S)-9-fluoro-3-methyl-10-(4-methyl-1-piperazinyl)-2,3-dihydro-7-oxo-7H-pyrido[1,2,3-de][1,4]-benzothiazine-6-carboxylic acid]",,2.5 µg/mL,1.25 µg/mL,2.5 µg/mL,1.25 µg/mL,0.08 µg/mL,0.08 µg/mL,"MIC (Staph. aureus [7]): 0.16 mg/I; MIC (Staph. aureus [7]; Staphylococcus aureus, read-out: MIC): 0.08 µg/mL"
"C[C@H]1COc2c(N3CCN(C)CC3)c(F)cc3c(=O)c(C(=O)O)cn1c23 [(S)-ofloxacin, (S)-(-)-9-Fluoro-2,3-dihydro-3-methyl-10-(4-methyl-1-piperazinyl)-7-oxo-7H-pyrido[1,2,3-de][i ,4]benzoxazine-6-carboxylic acid]",,0.63 µg/mL,0.63 µg/mL,1.25 µg/mL,1.25 µg/mL,0.04 µg/mL,0.04 µg/mL,MBC (Ps. aeruginosa [5]): 1.25 mg/I
"Cc1c(F)cc2c(=O)c(C(=O)O)cn3c2c1CCC3C (single isomer, unassigned) [(R)-(+)-isomer, 6,7-dihydro-5,8-dimethyl-9-fluoro-1-oxo-1 H,5H-benzo[ij]quinolizine-2-carboxylic acid]",much less active,,,,,,,

# From patent EP0368410A2, “Optically active benzoxazines and bezothiazines and a process for their stereospecific preparation” (GIST-BROCADES N.V., priority 1988, dated 1990)
